In one assay the target is human orexin-1 receptor (Homo sapiens (Human), UniProt O43613). Put plainly: In vitro assay: intracellular calcium measurements (FLIPR), antagonistic activity. Type of assay: cell-based. As to conditions: CHO cells, 3 nM orexin-A, marked values are geometric means of n = 2-6, read-out: IC50 OX1. In general terms: Calcium assays in cells follow changes in intracellular calcium, usually with a dye or a luminescent sensor.

In another assay the target is human orexin-2 receptor (Homo sapiens (Human), UniProt O43614). The assay is described as above. Type of assay: cell-based. To be noted: CHO cells, 3 nM orexin-A, marked values are geometric means of n = 2-6, read-out: IC50 OX2.
The mark [1] stands for this setting: compound incubation time of 10 min.

Each structure is given as a SMILES string. Where two headings read alike, the source gives them in different places.

Broadly, the IC50 is the concentration that gives 50% inhibition.

Chain of human orexin-1 receptor (O43613 whole entry): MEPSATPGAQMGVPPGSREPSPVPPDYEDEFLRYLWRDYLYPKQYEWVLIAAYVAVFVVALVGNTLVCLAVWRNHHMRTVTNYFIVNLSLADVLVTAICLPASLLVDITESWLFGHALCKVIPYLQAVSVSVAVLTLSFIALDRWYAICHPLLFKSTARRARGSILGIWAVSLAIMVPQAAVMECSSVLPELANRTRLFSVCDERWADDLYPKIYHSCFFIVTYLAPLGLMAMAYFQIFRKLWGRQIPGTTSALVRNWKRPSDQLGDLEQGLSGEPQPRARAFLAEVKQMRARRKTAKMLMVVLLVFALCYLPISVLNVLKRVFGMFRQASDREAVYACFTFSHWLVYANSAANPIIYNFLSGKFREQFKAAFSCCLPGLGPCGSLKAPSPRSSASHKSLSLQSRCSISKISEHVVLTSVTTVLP
Chain of human orexin-2 receptor (O43614 whole entry): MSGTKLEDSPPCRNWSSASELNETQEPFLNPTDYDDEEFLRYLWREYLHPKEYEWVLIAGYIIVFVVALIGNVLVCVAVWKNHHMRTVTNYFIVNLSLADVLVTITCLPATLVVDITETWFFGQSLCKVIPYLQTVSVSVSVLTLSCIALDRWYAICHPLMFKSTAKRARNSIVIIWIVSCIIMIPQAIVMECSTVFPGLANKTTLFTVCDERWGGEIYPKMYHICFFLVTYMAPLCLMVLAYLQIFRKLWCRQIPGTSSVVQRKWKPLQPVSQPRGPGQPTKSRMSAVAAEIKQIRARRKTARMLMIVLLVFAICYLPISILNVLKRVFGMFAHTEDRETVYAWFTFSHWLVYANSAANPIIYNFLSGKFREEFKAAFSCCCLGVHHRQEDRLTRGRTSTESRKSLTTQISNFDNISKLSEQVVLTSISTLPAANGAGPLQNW

In the case of `COc1cccc(OC)c1C1CC(C)C(=O)N1Cc1cccc(-n2nccn2)c1` (stereo not shown) [Example 149, 1-(3-(2H-1,2,3-triazol-2-yl)benzyl)-5-(2,6-dimethoxyphenyl)-3-methylpyrrolidin-2-one], the IC50 on human orexin-1 receptor (compound incubation 120 min) stood at 6 nM; at human orexin-2 receptor (compound incubation 120 min), 77 nM.

Regarding `COc1cccc(OC)c1C1CC(C)C(=O)N1Cc1cccc(-c2cscn2)c1` (stereo not shown) [Example 150, 5-(2,6-dimethoxyphenyl)-3-methyl-1-(3-(thiazol-4-yl)benzyl)pyrrolidin-2-one], the IC50 at human orexin-1 receptor (compound incubation 120 min) stood at 7 nM; at human orexin-2 receptor (compound incubation 120 min) it was 47 nM.

Turning to `COc1cccc(OC)c1C1CC(C)C(=O)N1Cc1ccc2nc(C)sc2c1` (stereo not shown) [Example 151, 5-(2,6-dimethoxyphenyl)-3-methyl-1-((2-methylbenzo[d]thiazol-6-yl)methyl)pyrrolidin-2-one], the IC50 on human orexin-1 receptor (compound incubation 120 min) was found to be 125 nM; at human orexin-2 receptor (compound incubation 120 min), 703 nM.

For `COc1cccc(OC)c1C1CC(C)C(=O)N1Cc1cc(Cl)cc(-c2ccccn2)c1` (stereo not shown) [Example 152, 1-(3-chloro-5-(pyridin-2-yl)benzyl)-5-(2,6-dimethoxyphenyl)-3-methylpyrrolidin-2-one], the IC50 at human orexin-1 receptor (compound incubation 120 min) came to 74 nM; at human orexin-2 receptor (compound incubation 120 min), 270 nM.

Regarding `COc1cccc(OC)c1C1CC(C)C(=O)N1Cc1ccc(F)c(-c2ccccn2)c1` (stereo not shown) [Example 153, 5-(2,6-dimethoxyphenyl)-1-(4-fluoro-3-(pyridin-2-yl)benzyl)-3-methylpyrrolidin-2-one], the results for the IC50 at human orexin-1 receptor (compound incubation 120 min) and on human orexin-2 receptor (compound incubation 120 min) were 8 nM and 122 nM, respectively.

`COc1cccc(OC)c1C1CC(C)C(=O)N1Cc1ccnc(-n2cccn2)c1` (stereo not shown) [Example 154, 1-((2-(1H-pyrazol-1-yl)pyridin-4-yl)methyl)-5-(2,6-dimethoxyphenyl)-3-methylpyrrolidin-2-one]: the IC50 worked out at 10 nM at human orexin-1 receptor (compound incubation 120 min) and 204 nM on human orexin-2 receptor (compound incubation 120 min).

Take `COc1cccc(OC)c1C1CC(C)C(=O)N1Cc1cccc(-n2cccn2)n1` (stereo not shown) [Example 155, 1-((6-(1H-pyrazol-1-yl)pyridin-2-yl)methyl)-5-(2,6-dimethoxyphenyl)-3-methylpyrrolidin-2-one]: the results for the IC50 at human orexin-1 receptor (compound incubation 120 min) and at human orexin-2 receptor (compound incubation 120 min) were 134 nM and 1180 nM, respectively.

Consider `COc1cccc(OC)c1C1CCCC(=O)N1Cc1ccc(OC(F)(F)F)cc1` (stereo not shown) [Example 156, 6-(2,6-dimethoxyphenyl)-1-(4-(trifluoromethoxy)benzyl)piperidin-2-one], for which the figures for the IC50 at human orexin-1 receptor (setting [1]) and at human orexin-2 receptor (setting [1]) were 259 nM and 22 nM, respectively.

Take `COc1cccc(OC)c1C1CCCC(=O)N1Cc1ccc(F)cc1` (stereo not shown) [Example 157, 6-(2,6-dimethoxyphenyl)-1-(4-fluorobenzyl)piperidin-2-one]: the IC50 at human orexin-1 receptor (setting [1]) worked out at 1460 nM; at human orexin-2 receptor (setting [1]), 231 nM.

With `COc1cccc(OC)c1C1CCCC(=O)N1Cc1ccc(Cl)cc1` (stereo not shown) [Example 158, 1-(4-chlorobenzyl)-6-(2,6-dimethoxyphenyl)piperidin-2-one], the results for the IC50 on human orexin-1 receptor (setting [1]) and on human orexin-2 receptor (setting [1]) were 702 nM and 154 nM, respectively.

In the case of `COc1ccc(CN2C(=O)CCCC2c2c(OC)cccc2OC)cc1` (stereo not shown) [Example 159, 6-(2,6-dimethoxyphenyl)-1-(4-methoxybenzyl)piperidin-2-one], the IC50 was 684 nM at human orexin-1 receptor (setting [1]) and 397 nM at human orexin-2 receptor (setting [1]).

As to `COc1cccc(OC)c1C1CCCC(=O)N1Cc1ccc(OC(F)(F)F)c(F)c1` (stereo not shown) [Example 160, 6-(2,6-dimethoxyphenyl)-1-(3-fluoro-4-(trifluoromethoxy)benzyl)piperidin-2-one], the figures for the 50% inhibitory concentration (IC50) on human orexin-1 receptor (setting [1]) and at human orexin-2 receptor (setting [1]) were 238 nM and 18 nM, respectively.

As to `COc1cccc(OC)c1C1CCCC(=O)N1Cc1ccc(OC(F)(F)F)c(Cl)c1` (stereo not shown) [Example 161, 1-(3-chloro-4-(trifluoromethoxy)benzyl)-6-(2,6-dimethoxyphenyl)piperidin-2-one], the IC50 at human orexin-1 receptor (setting [1]) was 147 nM; at human orexin-2 receptor (setting [1]) it was 62 nM.

With `COc1cccc(OC)c1C1CCCC(=O)N1Cc1ccc(SC(F)(F)F)cc1` (stereo not shown) [Example 162, 6-(2,6-dimethoxyphenyl)-1-(4-((trifluoromethyl)thio)benzyl)piperidin-2-one], the IC50 was 1310 nM on human orexin-1 receptor (setting [1]) and 62 nM at human orexin-2 receptor (setting [1]).

As to `COc1cccc(OC)c1C1CCCC(=O)N1Cc1ccc(C(F)(F)F)cc1` (stereo not shown) [Example 163, 6-(2,6-dimethoxyphenyl)-1-(4-(trifluoromethyl)benzyl)piperidin-2-one], the concentration for half-maximal inhibition (IC50) on human orexin-1 receptor (setting [1]) turned out to be 1190 nM; on human orexin-2 receptor (setting [1]) it was 171 nM.

On to `COc1cccc(OC)c1C1CCCC(=O)N1Cc1ccc(Oc2ccccc2)cc1` (stereo not shown) [Example 164, 6-(2,6-dimethoxyphenyl)-1-(4-phenoxybenzyl)piperidin-2-one], for which the results for the IC50 at human orexin-1 receptor (setting [1]) and on human orexin-2 receptor (setting [1]) were 409 nM and 27 nM, respectively.

Take `COc1cccc(OC)c1C1CCCC(=O)N1Cc1ccc(OC(F)F)cc1` (stereo not shown) [Example 165, 1-(4-(difluoromethoxy)benzyl)-6-(2,6-dimethoxyphenyl)piperidin-2-one]: the IC50 at human orexin-1 receptor (setting [1]) is 224 nM; at human orexin-2 receptor (setting [1]) it was 31 nM.

For `COc1cccc(OC)c1C1CCCC(=O)N1Cc1ccc2c(c1)OCO2` (stereo not shown) [Example 166, 1-(benzo[d][1,3]dioxol-5-ylmethyl)-6-(2,6-dimethoxyphenyl)piperidin-2-one], the IC50 at human orexin-1 receptor (setting [1]) amounted to 1720 nM; at human orexin-2 receptor (setting [1]), 549 nM.

For the molecule `COc1cc(Cl)cc(OC)c1C1CCCC(=O)N1Cc1ccc(OC(F)(F)F)cc1` (stereo not shown) [Example 167, 6-(4-chloro-2,6-dimethoxyphenyl)-1-(4-(trifluoromethoxy)benzyl)piperidin-2-one], the figures for the IC50 at human orexin-1 receptor (setting [1]) and at human orexin-2 receptor (setting [1]) were 231 nM and 28 nM, respectively.

`COc1cccc(OC)c1C1CCCC(=O)N1Cc1ccc(-n2cccn2)cc1` (stereo not shown) [Example 168, 1-(4-(1H-pyrazol-1-yl)benzyl)-6-(2,6-dimethoxyphenyl)piperidin-2-one]: the IC50 was determined as 1820 nM on human orexin-1 receptor (setting [1]) and 453 nM at human orexin-2 receptor (setting [1]).

Consider `COc1cccc(OC)c1C1CCCC(=O)N1Cc1ccc(-n2cccc2)cc1` (stereo not shown) [Example 169, 1-(4-(1H-pyrrol-1-yl)benzyl)-6-(2,6-dimethoxyphenyl)piperidin-2-one], for which the IC50 on human orexin-1 receptor (setting [1]) stood at 1590 nM; on human orexin-2 receptor (setting [1]) it was 190 nM.

With `COc1cccc(OC)c1C1CCCC(=O)N1Cc1ccc2nonc2c1` (stereo not shown) [Example 170, 1-(benzo[c][1,2,5]oxadiazol-5-ylmethyl)-6-(2,6-dimethoxyphenyl)piperidin-2-one], the IC50 was determined as 2390 nM at human orexin-1 receptor (setting [1]) and 766 nM on human orexin-2 receptor (setting [1]).

Regarding `COc1ccc2cc(CN3C(=O)CCCC3c3c(OC)cccc3OC)ccc2c1` (stereo not shown) [Example 171, 6-(2,6-dimethoxyphenyl)-1-((6-methoxynaphthalen-2-yl)methyl)piperidin-2-one], the IC50 at human orexin-1 receptor (setting [1]) came to 122 nM; at human orexin-2 receptor (setting [1]), 66 nM.

On to `COc1cc(OC)c(C2CCCC(=O)N2Cc2ccc(OC(F)(F)F)cc2)c(OC)c1` (stereo not shown) [Example 172, 1-(4-(trifluoromethoxy)benzyl)-6-(2,4,6-trimethoxyphenyl)piperidin-2-one], for which the IC50 is 330 nM on human orexin-1 receptor (setting [1]) and 106 nM on human orexin-2 receptor (setting [1]).

Take `COc1cccc(OC)c1C1CC(C)CC(=O)N1Cc1ccc(OC(F)(F)F)cc1` (stereo not shown) [Example 173, 6-(2,6-dimethoxyphenyl)-4-methyl-1-(4-(trifluoromethoxy)benzyl)piperidin-2-one]: the IC50 came to 537 nM at human orexin-1 receptor (setting [1]) and 297 nM at human orexin-2 receptor (setting [1]).

For `COc1cccc(OC)c1C1CC(C)(C)CC(=O)N1Cc1ccc(OC(F)(F)F)cc1` (stereo not shown) [Example 174, 6-(2,6-dimethoxyphenyl)-4,4-dimethyl-1-(4(trifluoromethoxy)benzyl)piperidin-2-one], the values for the IC50 at human orexin-1 receptor (setting [1]) and on human orexin-2 receptor (setting [1]) were 1800 nM and 1080 nM, respectively.

Take `COc1cccc(OC)c1C1CCCC(=O)N1Cc1cccc(OC(F)(F)F)c1` (stereo not shown) [Example 175, 6-(2,6-dimethoxyphenyl)-1-(3-(trifluoromethoxy)benzyl)piperidin-2-one]: the IC50 came to 136 nM at human orexin-1 receptor (setting [1]) and 94 nM on human orexin-2 receptor (setting [1]).

Regarding `COc1cccc(OC)c1C1CCCC(=O)N1Cc1ccc(OCCF)cc1` (stereo not shown) [Example 176, 6-(2,6-dimethoxyphenyl)-1-(4-(2-fluoroethoxy)benzyl)piperidin-2-one], the figures for the IC50 at human orexin-1 receptor (setting [1]) and at human orexin-2 receptor (setting [1]) were 327 nM and 61 nM, respectively.

As for `COc1cccc(OC)c1C1CCCC(=O)N1Cc1ccc(OC(F)F)nc1` (stereo not shown) [Example 177, 1-((6-(difluoromethoxy)pyridin-3-yl)methyl)-6-(2,6-dimethoxyphenyl)piperidin-2-one], the IC50 worked out at 354 nM on human orexin-1 receptor (setting [1]) and 92 nM on human orexin-2 receptor (setting [1]).

With `COc1cccc(OC)c1C1CCCC(=O)N1Cc1cccc(OC(F)F)c1` (stereo not shown) [Example 178, 1-(3-(difluoromethoxy)benzyl)-6-(2,6-dimethoxyphenyl)piperidin-2-one], the figures for the IC50 at human orexin-1 receptor (setting [1]) and on human orexin-2 receptor (setting [1]) were 215 nM and 78 nM, respectively.

As for `COc1cccc(OC)c1C1CCCC(=O)N1Cc1cccc(Oc2ccccc2)c1` (stereo not shown) [Example 179, 6-(2,6-dimethoxyphenyl)-1-(3-phenoxybenzyl)piperidin-2-one], the IC50 on human orexin-1 receptor (setting [1]) came out at 225 nM; at human orexin-2 receptor (setting [1]), 42 nM.

On to `COc1cccc(OC)c1C1CCCC(=O)N1Cc1cc2ccccc2o1` (stereo not shown) [Example 180, 1-(benzofuran-2-ylmethyl)-6-(2,6-dimethoxyphenyl)piperidin-2-one], for which the IC50 at human orexin-1 receptor (setting [1]) worked out at 1450 nM; at human orexin-2 receptor (setting [1]), 170 nM.

Turning to `COc1cccc(OC)c1C1CCCC(=O)N1Cc1cc2ccccc2s1` (stereo not shown) [Example 181, 1-(benzo[b]thiophen-2-ylmethyl)-6-(2,6-dimethoxyphenyl)piperidin-2-one], the IC50 on human orexin-1 receptor (setting [1]) amounted to 805 nM; at human orexin-2 receptor (setting [1]) it was 252 nM.

As to `COc1cccc(OC)c1C1CCCC(=O)N1Cc1ccc2c(c1)OC(F)(F)O2` (stereo not shown) [Example 182, 1-((2,2-difluorobenzo[d][1,3]dioxol-5-yl)methyl)-6-(2,6-dimethoxyphenyl)piperidin-2-one], the IC50 at human orexin-1 receptor (setting [1]) was found to be 283 nM; at human orexin-2 receptor (setting [1]) it was 178 nM.

For `COc1cccc(OC)c1C1CCCC(=O)N1Cc1cccc(OC(F)F)n1` (stereo not shown) [Example 183, 1-((6-(difluoromethoxy)pyridin-2-yl)methyl)-6-(2,6-dimethoxyphenyl)piperidin-2-one], the IC50 on human orexin-1 receptor (setting [1]) turned out to be 644 nM; at human orexin-2 receptor (setting [1]), 64 nM.

The record behind these values is US9242970B2 (ACTELION PHARMACEUTICALS LTD., priority 2010, dated 2016).
